Results reported in PubChem BioAssay (NCI).
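Step 1: Grow cells in 96-well plates. Step 2: Expose to compound for 48 hours at 5 concentrations. Step 3: Interpolate endpoints linearly; if unreached, use highest concentration. Abbreviation: GI50, concentration required for 50% inhibition of growth. The concentration for full growth arrest is given as TGI.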

How the values were obtained:
Assay in all cases: growth of human tumour cells (NCI), 48 h
A549 NSCLC = tested on: A549 NSCLC
COLO 205 colon = tested on: COLO 205 colon
HOP-62 NSCLC = tested on: HOP-62 NSCLC
K-562 leukemia = tested on: K-562 leukemia
MALME-3M melanoma = tested on: MALME-3M melanoma
NCI-H226 lung = tested on: NCI-H226 lung
RPMI-8226 leukemia = tested on: RPMI-8226 leukemia
SK-MEL-5 melanoma = tested on: SK-MEL-5 melanoma
U251 CNS = tested on: U251 CNS
UACC-257 melanoma = tested on: UACC-257 melanoma

Row | SMILES | TGI (A549 NSCLC) | TGI (COLO 205 colon) | TGI (HOP-62 NSCLC) | TGI (K-562 leukemia) | TGI (MALME-3M melanoma) | TGI (NCI-H226 lung) | TGI (RPMI-8226 leukemia) | TGI (SK-MEL-5 melanoma) | TGI (U251 CNS) | TGI (UACC-257 melanoma) | GI50 (U251 CNS) | GI50 (A549 NSCLC) | GI50 (COLO 205 colon) | GI50 (HOP-62 NSCLC) | GI50 (K-562 leukemia) | GI50 (MALME-3M melanoma) | GI50 (SK-MEL-5 melanoma) | GI50 (NCI-H226 lung) | GI50 (RPMI-8226 leukemia) | GI50 (UACC-257 melanoma)
1 | FC(F)(F)c1nc(-c2ccccc2Cl)[nH]c1C(F)(F)F | 3.06 µM | 0.971 µM | 1.35 µM | 4.29 µM | 2.75 µM | 3.54 µM | 25.2 µM | 0.833 µM | 3.08 µM | 2.2 µM |  |  |  |  |  |  |  |  |  | 
2 | Cn1cc(NC(=O)c2cc(NC(=O)CCCCCCCCCCC(=O)Nc3cc(C(=O)Nc4cc(C(=O)NCCC(=N)N)n(C)c4)n(C)c3)cn2C)cc1C(=O)NCCC(=N)N | > 100 µM | > 100 µM | 81.3 µM | > 100 µM |  | > 100 µM |  | 87.8 µM | > 100 µM | > 100 µM |  |  |  |  |  |  |  |  |  | 
3 | CCC(C)C1NC(=O)c2nc(oc2-c2ccccc2)-c2csc(n2)-c2csc(n2)-c2nc(oc2C)-c2coc(n2)CNC(=O)C(C(C)CC)NC1=O (configuration not stated) |  |  |  |  |  |  |  |  | 0.0492 µM |  | 0.0126 µM |  |  |  |  |  |  |  |  | 
4 | COc1cc2c3c(cccc3c1)C(=O)N(CCN1CCCC1)C2=O | 5.31 µM | 3.28 µM | 5.27 µM | > 100 µM | 4.1 µM |  |  | 3.06 µM | 9.59 µM |  | 2.75 µM | 1.91 µM | 1.48 µM | 2.1 µM | 3.62 µM | 1.88 µM | 1.56 µM |  |  | 
5 | Cc1nn(-c2ccc(F)cc2)c2ncnc(Nc3ccc(NC(=O)Nc4ccc(Cl)c(C(F)(F)F)c4)cc3)c12 | 4.26 µM | 3.95 µM | 6.83 µM | > 100 µM | 4.21 µM | 5.99 µM | 9.54 µM | 12.1 µM | 3.62 µM | 5.99 µM | 1.49 µM | 1.8 µM | 1.87 µM | 2.25 µM | 1.75 µM | 1.76 µM | 3.39 µM | 2.31 µM | 1.71 µM | 2.25 µM
6 | CC(=O)OCC1OC(O[C@@H]2C[C@H]3C(C)(C)[C@H](OC(C)=O)CC[C@]3(C)[C@H]3CCC4=C([C@@H](C)C[C@@H](O)[C@H](O)C(C)(C)O)CC[C@@]4(C)[C@@]32C)C(O)C(O)C1O (some centres not stated) | 33.3 µM | 30.2 µM | 30 µM | 32.5 µM | 30.4 µM | 32 µM | 30.1 µM | 29.7 µM | 28 µM | 30.3 µM |  | 19 µM | 16 µM | 16.2 µM | 12.7 µM | 16.5 µM | 16.2 µM | 17.3 µM | 10.5 µM | 16.3 µM
7 | C#Cc1cnc(=O)n(C2CC(O)C(CO)O2)c1 (configuration not stated) | > 100 µM | > 100 µM | > 100 µM | > 100 µM | > 100 µM | > 100 µM | > 22.8 µM | > 100 µM | > 100 µM | 98.1 µM | > 100 µM | > 100 µM | > 100 µM | > 100 µM | > 100 µM | > 100 µM | > 100 µM | > 100 µM | 8.51 µM | > 54.5 µM
8 | COc1cc2ncn(-c3cc(OCc4ccccc4Cl)c(C(N)=O)s3)c2cc1OC | > 10.8 µM | > 25 µM | 7.15 µM | > 25 µM | > 25 µM | > 25 µM | > 25 µM | 3.13 µM | 10.4 µM | > 25 µM | 0.224 µM | 0.29 µM | 0.111 µM | 0.217 µM | 0.114 µM | > 25 µM | 0.0993 µM | 0.801 µM | 0.341 µM | 
